Experimental data published in patent US8263628B2, “Fluorine-containing organosulfur compound and pesticidal composition thereof” (Sumitomo Chemical Company, Limited., priority 2007, dated 2012).

Assays:
Musca domestica = experiment: Filter paper/sucrose bait test against female Musca domestica; assay type: in vivo; settings: 500 ppm test solution, 0.7 mL on filter paper; 10 female Musca domestica; after 24 hours; read-out: mortality rate
Experimental: Each of the formulations of the present compounds (1), (2), (3), (4), (5), (6), (8), (9), (10), (12), (14) and (15) obtained in Formulation Example 20 was diluted so that the concentration of the present compound was 500 ppm to prepare a test solution.
On the bottom of a polyethylene cup having a diameter of 5.5 cm, a filter paper having the same size was laid and 0.7 mL of the test solution was dropped on the filter paper, and then 30 mg of a sucrose as a bait was uniformly placed. In the polyethylene cup, 10 female Musca domesticas were released and the cup was lidded. After 24 hours, life and death of Musca domesticas were examined and the mortality rate was determined.

Culex pipiens pallens = experiment: Water treatment test against Culex pipiens pallens last instar larvae; assay type: in vivo; settings: 24 h; active ingredient 3.5 ppm in water; 20 Culex pipiens pallens last instar larvae; after one day; read-out: mortality rate
Experimental: Each of the formulations of the present compounds (1), (3), (4), (6), (8), (9), (10), (14) and (15) obtained in Formulation Example 20 was diluted so that the concentration of the present compound was 500 ppm to prepare a test solution.
To 100 mL of ion-exchange water was added 0.7 mL of the above test solution (concentration of an active ingredient: 3.5 ppm). In the solution, 20 Culex pipiens pallens last instar larvae were released. After one day, life and death of Culex pipiens last instar larvae were examined and the mortality rate was determined.

| Structure (SMILES) | mortality at 500 ppm (Musca domestica) [%] | mortality at 3.5 ppm (Culex pipiens pallens) [%] |
| --- | --- | --- |
| FC(F)(F)CCSCc1ccc(C(F)(F)F)nc1 [present compound (1), 2-trifluoromethyl-5-(3,3,3-trifluoropropylsulfanylmethyl)pyridine] | ≥ 90 | ≥ 95 |
| O=S(=O)(CCC(F)(F)F)Cc1ccc(C(F)(F)F)nc1 [present compound (2), 2-trifluoromethyl-5-(3,3,3-trifluoropropanesulfonylmethyl)pyridine] | ≥ 90 | – |
| CC(SCCC(F)(F)F)c1ccc(C(F)(F)F)nc1 (stereo not drawn) [present compound (3), 2-trifluoromethyl-5-[1-(3,3,3-trifluoropropylsulfanyl)ethyl]pyridine] | ≥ 90 | ≥ 95 |
| CC(c1ccc(C(F)(F)F)nc1)S(=O)(=O)CCC(F)(F)F (stereo not drawn) [present compound (4), 2-trifluoromethyl-5-[1-(3,3,3-trifluoropropanesulfonyl)ethyl]pyridine] | ≥ 90 | ≥ 95 |
| FC(F)(F)CCSCc1ccc(Cl)cn1 [present compound (5), 5-chloro-2-(3,3,3-trifluoropropylsulfanylmethyl)pyridine] | ≥ 90 | – |
| CC(SCCC(F)(F)F)c1ccc(Cl)cn1 (stereo not drawn) [present compound (6), 5-chloro-2-[1-(3,3,3-trifluoropropylsulfanyl)ethyl]pyridine] | ≥ 90 | ≥ 95 |
| CC(SCCC(F)(F)F)c1ccc(C(F)(F)F)cn1 (stereo not drawn) [present compound (8), 5-trifluoromethyl-2-[1-(3,3,3-trifluoropropylsulfanyl)ethyl]pyridine] | ≥ 90 | ≥ 95 |
| CC(c1ccc(C(F)(F)F)cn1)S(=O)(=O)CCC(F)(F)F (stereo not drawn) [present compound (9), 5-trifluoromethyl-2-[1-(3,3,3-trifluoropropanesulfonyl)ethyl]pyridine] | ≥ 90 | ≥ 95 |
| FC(F)(F)CCSCc1cnc(C(F)(F)F)nc1 [present compound (10), 2-trifluoromethyl-5-(3,3,3-trifluoropropylsulfanylmethyl)pyrimidine] | ≥ 90 | ≥ 95 |
| COc1ncc(CSCCC(F)(F)F)cn1 [present compound (12), 2-methoxy-5-(3,3,3-trifluoropropylsulfanylmethyl)pyrimidine] | ≥ 90 | – |
| COC(=O)C(Cl)(c1ccc(C(F)(F)F)cn1)S(=O)(=O)CCC(F)(F)F (stereo not drawn) [present compound (14), methyl 2-chloro-2-(5-trifluoromethylpyridin-2-yl)-2-(3,3,3-trifluoropropylsulfonyl)acetate] | ≥ 90 | ≥ 95 |
| O=S(=O)(CCC(F)(F)F)C(Cl)c1ccc(C(F)(F)F)cn1 (stereo not drawn) [present compound (15), 2-[chloro-(3,3,3-trifluoropropanesulfonyl)methyl]-5-trifluoromethylpyridine] | ≥ 90 | ≥ 95 |
